The source of these data is patent US7977364B2, “Indazoles, benzisoxazoles and benzisothiazoles and their use as estrogenic agents” (Laboratoire Thermamex, priority 2004, dated 2011).

One series relates to Prepubescent female rats. Put plainly: Estrogenic / uterotrophic activity in vivo (uterus wet weight). Details: species or system rat. The settings on record: Rattus norvegicus, po, 72 h, Table 4; orally 3 mg/rat/day for 3 days; read-out: % stimulation vs vehicle (uterus weight). On the procedure: Prepubescent female rats were orally treated at 3 mg/rat/day for 3 days. On the day following the last treatment, uteri were removed and wet weights were recorded.
The results are expressed as % of stimulation of uterus weight in comparison with vehicles. […]
Prepubescent female rats were orally treated with 0.3; 1; 3 or 10 mg/rat/day for 3 days. On the day following the last treatment, uteri were removed and wet weights were recorded.

For series [1], the target named is T1, purified full-length recombinant human ERα (Homo sapiens, UniProt P03372).
T1 sequence (P03372 1-595): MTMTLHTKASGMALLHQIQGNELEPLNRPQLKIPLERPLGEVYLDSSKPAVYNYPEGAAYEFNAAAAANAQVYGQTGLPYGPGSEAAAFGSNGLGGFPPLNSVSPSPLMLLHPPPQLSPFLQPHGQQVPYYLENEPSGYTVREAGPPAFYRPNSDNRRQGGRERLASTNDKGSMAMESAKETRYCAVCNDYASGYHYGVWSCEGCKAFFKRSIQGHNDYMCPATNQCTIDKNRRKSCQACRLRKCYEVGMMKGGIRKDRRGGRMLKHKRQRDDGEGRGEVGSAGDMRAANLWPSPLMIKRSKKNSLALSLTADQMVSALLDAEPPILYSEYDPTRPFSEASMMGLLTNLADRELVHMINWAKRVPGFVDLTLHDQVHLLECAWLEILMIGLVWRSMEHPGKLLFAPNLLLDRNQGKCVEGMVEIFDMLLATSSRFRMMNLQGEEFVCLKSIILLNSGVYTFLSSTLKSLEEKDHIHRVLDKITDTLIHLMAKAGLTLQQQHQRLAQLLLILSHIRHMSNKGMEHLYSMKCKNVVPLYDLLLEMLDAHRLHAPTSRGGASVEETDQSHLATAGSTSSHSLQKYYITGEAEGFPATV
The series can be described thus: Estrogen receptor α competitive radiometric binding assay ([3H]-E2). The conditions noted are these: for RBA (%) Mean ± S.E.M, ER α: ratio of IC50s of E2 and competitor, E2 set at 100%.

The target in series [2] is purified full-length recombinant human ERβ (Homo sapiens, UniProt Q92731). Put plainly: Estrogen receptor β competitive radiometric binding assay ([3H]-E2). The settings on record: for RBA (%) Mean ± S.E.M, ER β: ratio of IC50s of E2 and competitor, E2 set at 100%; for R (IC50s) αβ: ratio of the IC50 for ERα to the IC50 for ERβ.
Sequence of purified full-length recombinant human ERβ (Q92731 whole entry): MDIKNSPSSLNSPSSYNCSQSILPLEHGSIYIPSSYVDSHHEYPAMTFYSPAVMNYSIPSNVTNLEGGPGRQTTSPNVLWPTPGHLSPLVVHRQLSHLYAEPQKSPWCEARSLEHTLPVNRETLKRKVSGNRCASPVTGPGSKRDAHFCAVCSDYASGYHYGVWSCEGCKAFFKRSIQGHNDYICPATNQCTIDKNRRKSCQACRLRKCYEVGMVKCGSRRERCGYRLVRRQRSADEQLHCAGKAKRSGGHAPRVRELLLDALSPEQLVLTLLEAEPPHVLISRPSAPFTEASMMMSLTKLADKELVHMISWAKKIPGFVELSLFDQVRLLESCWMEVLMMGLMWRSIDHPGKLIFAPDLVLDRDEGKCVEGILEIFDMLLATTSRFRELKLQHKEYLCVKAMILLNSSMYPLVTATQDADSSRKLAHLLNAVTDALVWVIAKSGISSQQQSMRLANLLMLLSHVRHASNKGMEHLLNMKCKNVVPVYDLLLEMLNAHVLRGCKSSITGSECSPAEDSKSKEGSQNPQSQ
In series [3] the test system is human breast cancer cell line MCF-7. The series can be described thus: Proliferative activity in vitro (ATP luminescence, 6 days). It counts as cell-based. The conditions noted are these: Homo sapiens, MCF7, 144 h; for activity at 1 µM: MCF-7, 10^−6 M, read-out: Effect at 10^−6 M (% of control); for activity at 1 µM / activity at 0.01 µM: six days; for activity at 0.01 µM: MCF-7, 10^−8 M, read-out: Effect at 10^−8 M (% of control); for EC50: MCF-7, six days, read-out: Cell proliferation EC50 (nM) ± S.E.M. On the procedure:
The proliferative effect of the compounds of the invention was evaluated on human breast cancer cell line MCF-7 by measuring the number of viable cells after 6 days of treatment.
MCF-7 cells were routinely cultured as monolayers in Dulbecco's modified Eagle's medium (DMEM) containing 4 mM Glutamax and 4.5 g/l glucose and supplemented with 5% (v/v) decomplemented fetal calf serum (dFCS) and antibiotics.
Cells were plated at 2.10^6 cells/75 cm^2 flasks and incubated at 37° C. in a humidified atmosphere containing 5% CO2. They were passaged once weekly to maintain continuous exponential growth. Forty eight hours before the start of an experiment, near-confluent cells were changed to a phenol red free DMEM containing 5% steroid-stripped dFCS by dextran coated charcoal treatment (DCC-DMEM). On the day of the experiment, cells were harvested by brief exposure to trypsin and plated in DCC-DMEM in 96-well microplates at a density of 4.10^3 cells/well. The next day, the medium was renewed and test compounds, diluted appropriately in estrogen-free DMEM, were added and incubated for six days. […] At the end of the incubation period, cell proliferation was evaluated by quantitation of the cellular ATP content which signals the presence of metabolically active cells.
The assay, based on the ATP-dependent luciferase reaction, enables generation of a luminescent signal proportional to the amount of ATP present. As there is a linear relationship between the amount of ATP and the number of viable cells present in culture, the luminescent signal allowed to precisely evaluate cell proliferation (Crouch, S. P. M. et al. J. Immunol. Meth., 1993, 160, 81; Kangas, L. et al. Med. Biol. 1984, 62, 338; Petty, R. D. et al. J. Biolum. Chemilum. 1995, 10, 29).
In brief, the microplates were inverted to discard the culture medium and 100 μl of fresh medium was added into each well. The microplates were equilibrated at room temperature for approximately 30 minutes. 100 μl of luciferase reagent was added into each well and contents were mixed for 2 minutes to induce cell lysis. The plates were incubated at room temperature for 10 minutes to stabilize luminescence signal.
Luminescence was recorded using a microplate reader (Wallac, model 1420 Victor^2) and results were expressed as percentage of the control luminescence. Sigmoidal dose-response curves were plotted and EC50 values were calculated for each compound in order to evaluate their proliferative potency.

In series [4] the test system is human endometrial adenocarcinoma Ishikawa cells. The series can be described thus: Estrogenic and anti-estrogenic activities in vitro: induction of alkaline phosphatase (APase) activity. The series is classed as cell-based. The settings on record: in words. On the procedure:
The estrogenic and anti-estrogenic potentials of new compounds were evaluated using the induction of alkaline phosphatase (APase) activity, an estrogen specific response in human endometrial adenocarcinoma Ishikawa cells (Botella J., J Steroid Biochem Molec Biol, 1995, 55: 77-84; Littlefield et al., Endocrinology, 1990, 127: 2757-2762).
Ishikawa cells were routinely grown as monolayers in Dulbecco's Modified Eagle's medium (DMEM) containing 4 mM Glutamax I and supplemented with 10% of decomplemented fetal calf serum (dFCS) and antibiotics. They were maintained in a humidified atmosphere of 5% CO2 and 95% air, at 37±0.1° C. Stocks were performed once a week to maintain continuous exponential growth.
For studies, Ishikawa cells were plated into 96-well microplates. The next day, the medium was changed to a phenol red-free DMEM containing 5% dFCS stripped of endogenous estrogens by dextran coated charcoal treatment.
At the end of the incubation period, APase activity was assayed by a method involving the hydrolysis of p-nitrophenyl phosphate to p-nitrophenol at pH 9.8 and spectrophotometric determination of the product at 405 nm.
In brief, the microplates were first rinsed twice with cold phosphate buffered solution and then placed at −80° C. for at least 15 minutes. After thawing at room temperature for 5-10 minutes, the plates were put on ice and 50 μl ice-cold solution containing 5 mM p-nitrophenyl phosphate was added to each well. The plates were warmed to room temperature to allow for the development of the enzymatic reaction (t0). After a 15 to 60 minute incubation period, the intensity of the yellow color generated by the production of p-nitrophenol was measured into each well at 405 nm using a microplate reader (Wallac, model 1420 Victor^2). […] Sigmoidal dose-response curves were plotted and EC50 (estrogenic effect) and IC50 (anti-estrogenic effect) values were calculated for each compound.

Broadly, the melting point is the temperature, or range, at which the solid turns liquid. In general, IC50 refers to the concentration that inhibits the measured activity by half.

As to `NS(=O)(=O)Oc1ccc2c(C3CCCCC3)noc2c1` [Example 76, 3-cyclohexyl-1,2-benzisoxazol-6-yl sulfamate], the melting point worked out at 145 °C.

Turning to `CC/C(=C(\c1ccccc1)c1ccc(OCCN(C)C)cc1)c1ccccc1` [TAM, tamoxifen, reference compound], the change in vivo at 3 mg in the series on Prepubescent female rats came out at 206%.

With `N#CC(Cc1ccc(O)cc1)c1ccc(O)cc1` (stereo not drawn) [DPN, 2,3-bis-(4-hydroxyphenyl)propionitrile, reference compound], the change in vivo at 3 mg with Prepubescent female rats stood at 358%.

The compound `N#CC(Cc1ccc(O)c(F)c1)c1noc2cc(O)ccc12` (stereo not drawn) [Ex 81, 2-(6-hydroxy-1,2-benzisoxazol-3-yl)-3-(3-fluoro-4-hydroxyphenyl)-propanenitrile] had a melting point of 201 °C. For the same compound, in series [1], the half-inhibitory concentration (IC50) is 139 ± 33.9 nM and the “RBA (%) Mean ± S.E.M, ER α” value is reported as 2.4 ± 0.7%. Moreover, in series [2], the IC50 stood at 14.4 ± 5.3 nM; the “RBA (%) Mean ± S.E.M, ER β” value is recorded as 35.9 ± 14.0%; the “R (IC50s) αβ” value was 9.7. For the same compound, in series [3], the activity at 1 µM was found to be 117%, the activity at 0.01 µM turned out to be 86.8% and the EC50 was determined as 635 ± 285 nM. In the series on Prepubescent female rats, the change in vivo at 3 mg came out at 49%.

For `COc1ccc2c(C(C#N)Cc3ccc(O)cc3C)noc2c1` (stereo not drawn) [Example 82, 2-(6-methoxy-1,2-benzisoxazol-3-yl)-3-(4-hydroxy-2-methylphenyl)-propanenitrile], the melting point stood at 131 °C.

For the compound `NS(=O)(=O)Oc1ccc2c(C34CC5CC(CC(C5)C3)C4)noc2c1` [Example 74, 3-(1-adamantyl)-1,2-benzisoxazol-6-yl sulfamate], the melting point was determined as 87 °C.

Take `Cl.Oc1ccc2c(C3CCCCCC3)n[nH]c2c1`: the melting point came out at 95 °C.

Turning to `Oc1ccc(Cc2noc3cc(O)ccc23)cc1` [Ex 73, 3-(4-hydroxybenzyl)-1,2-benzisoxazol-6-ol], in series [1], the IC50 was found to be 2910 ± 318 nM and the “RBA (%) Mean ± S.E.M, ER α” value came to 0.1 ± 0.0%. Further, the “estrogenic effect in alkaline phosphatase activity in the Ishikawa cell model” value in series [4] is “weak estrogenic effect”. Also, in series [2], the half-inhibitory concentration (IC50) came out at 485 ± 158 nM; the “RBA (%) Mean ± S.E.M, ER β” value was determined as 1.0 ± 0.3%; the “R (IC50s) αβ” value turned out to be 6.0. Moreover, the “selectivity for the human recombinant estrogen receptor β” value in series [2] (in words) is “marked selectivity”. In series [3], the activity at 1 µM amounted to 134%, the activity at 0.01 µM was found to be 94.2% and the EC50 was 365 ± 126 nM. Besides, in the series on Prepubescent female rats, the change in vivo at 3 mg came to 52%.

The compound `Cn1nc(C2CCCCC2)c2ccc(O)cc21` [Example 25, 3-cyclohexyl-1-methyl-1H-indazol-6-ol] had a melting point of 205 °C.

With `Oc1ccc2c(C3CCCCC3)nn(Cc3ccccc3)c2c1` [Example 29, 1-benzyl-3-cyclohexyl-1H-indazol-6-ol], the melting point is 154 °C.

As for `CCCc1c(-c2ccc(O)cc2)nn(-c2ccc(O)cc2)c1-c1ccc(O)cc1` [PPT, 1,3,5-tris-(4-hydroxyphenyl)-4-propyl-1H-pyrazole, reference compound], the change in vivo at 3 mg with Prepubescent female rats was 96%.

`Oc1ccc2c(C3CCCC3)nsc2c1` [Example 94, 3-cyclopentyl-1,2-benzisothiazol-6-ol]: the melting point was determined as 130 °C.

`Cl.Oc1ccc2c(C3CCCC3)nn(CCN3CCCCC3)c2c1`: the melting point turned out to be 120 °C.

For the compound `Cl.Oc1ccc(C2=COc3cc(O)cc4[nH]nc2c34)cc1`, the melting point was determined as 111 °C.

For `Cn1nc(C2CCCCC2)c2ccc(S(N)(=O)=O)cc21` [Example 36, 3-cyclohexyl-1-methyl-1H-indazole-6-sulfonamide], the melting point was found to be 188 °C.

In turn, `c1ccc(COc2ccc3c(C4CCCCCC4)noc3c2)cc1` [Example 63, 6-benzyloxy-3-cycloheptyl-1,2-benzisoxazole] showed a melting point of 80 °C.

The compound `Oc1ccc(-n2nc(C3CCCC3)c3ccc(O)cc32)cc1` [Example 26, 3-cyclopentyl-1-(4-hydroxyphenyl)-1H-indazol-6-ol] yielded a melting point of 178 °C.

Compound `NS(=O)(=O)n1nc(C2CCCCCC2)c2ccc(O)cc21` [Example 39, 3-cycloheptyl-6-hydroxy-1H-indazole-1-sulfonamide] had a melting point of 155 °C.

`NS(=O)(=O)Oc1ccc2c(C3CCCCCC3)noc2c1` [Example 75, 3-cycloheptyl-1,2-benzisoxazol-6-yl sulfamate]: the melting point turned out to be 82 °C.

Take `NS(=O)(=O)Oc1ccc2c(C3CCCC3)nsc2c1` [Example 96, 3-cyclopentyl-1,2-benzisothiazol-6-yl sulfamate]: the melting point stood at 132 °C.

For `COc1ccc(C2=COc3cc(O)cc4[nH]nc2c34)cc1.Cl`, the melting point was found to be 255 °C.

Take `Oc1ccc2c(C3CCCC3)nn(Cc3ccc(Br)cc3)c2c1` [Example 28, 1-(4-bromobenzyl)-3-cyclopentyl-1H-indazol-6-ol]: the melting point came out at 147 °C.

Regarding `Oc1ccc2c(C34CC5CC(CC(C5)C3)C4)noc2c1` [Example 64, 3-(1-adamantyl)-1,2-benzisoxazol-6-ol], the melting point turned out to be 215 °C.
